According to paper PMC4232301 (Organic & biomolecular chemistry, 2012):

Molecular target: [KS6AT6] (DEBS module 6 ketosynthase-acyltransferase didomain) (Saccharopolyspora erythraea, UniProt Q03133)
Test: LC-MS of tryptic digest, methylmalonyl transfer to holo-ACP2
Type: biochemical
Settings: acyl acceptor purified holo-ACP2; AT domain; 30 min

[KS6AT6] (DEBS module 6 ketosynthase-acyltransferase didomain), sequence (Q03133 1475-2340 limits assumed): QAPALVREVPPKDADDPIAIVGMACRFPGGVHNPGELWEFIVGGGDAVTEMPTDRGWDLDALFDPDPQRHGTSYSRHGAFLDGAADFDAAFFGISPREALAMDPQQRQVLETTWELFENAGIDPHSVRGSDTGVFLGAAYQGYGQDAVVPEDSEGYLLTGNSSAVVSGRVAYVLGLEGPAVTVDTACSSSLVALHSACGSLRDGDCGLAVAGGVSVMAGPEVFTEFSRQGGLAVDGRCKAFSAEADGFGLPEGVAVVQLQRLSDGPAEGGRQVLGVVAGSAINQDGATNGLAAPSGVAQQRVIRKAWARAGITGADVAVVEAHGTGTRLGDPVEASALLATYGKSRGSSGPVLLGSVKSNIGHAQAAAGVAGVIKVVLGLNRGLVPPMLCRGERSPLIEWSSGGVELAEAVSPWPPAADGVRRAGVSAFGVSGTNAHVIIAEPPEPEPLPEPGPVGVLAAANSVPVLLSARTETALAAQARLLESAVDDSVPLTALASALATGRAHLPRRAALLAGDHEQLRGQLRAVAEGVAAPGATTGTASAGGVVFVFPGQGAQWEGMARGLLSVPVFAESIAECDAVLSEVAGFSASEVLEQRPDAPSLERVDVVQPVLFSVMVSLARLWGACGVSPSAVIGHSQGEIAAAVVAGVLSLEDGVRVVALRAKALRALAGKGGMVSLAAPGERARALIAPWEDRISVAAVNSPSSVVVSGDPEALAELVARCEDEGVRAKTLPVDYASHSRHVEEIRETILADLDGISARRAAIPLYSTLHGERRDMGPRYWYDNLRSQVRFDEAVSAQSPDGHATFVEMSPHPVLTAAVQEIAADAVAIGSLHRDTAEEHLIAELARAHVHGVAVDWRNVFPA

CC(C(=O)O)C(=O)SCCNC(=O)CCNC(=O)[C@H](O)C(C)(C)COP(=O)(O)OP(=O)(O)OC[C@H]1O[C@@H](n2cnc3c(N)ncnc32)[C@H](O)[C@@H]1OP(=O)(O)O (stereo partly shown) [methylmalonyl-CoA]
LC-MS of tryptic digest, methylmalonyl transfer to holo-ACP2: purified ACP remains competent for AT-ACP methylmalonate transfer
